Reference: paper PMC7413254 (Nature Communications, 2020)
Where two headings read alike, the source gives them in different places.

What was measured:
non-expressing oocytes [1] = type: cell-based, Xenopus laevis; conditions: non-expressing oocytes, total [3H]CQ transport, normalised to the oocyte type control
In short: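 Oocytes (ten per treatment, ≥4 independent frogs/days) were preloaded by injecting VF-6 in 25 nL ND96 at pH 5.0, 5.5, 6.0 or 7.0, or Na^+-free choline buffer, then uptake run 1.5 h, 27.5 °C, ND96 pH 5.5 by default. Internal concentrations assumed ~400 nL oocyte volume.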

non-expressing oocytes [2] = assay: cells; type: cell-based, Xenopus laevis; conditions: non-expressing oocytes, total [3H]CQ transport, normalised to the oocyte type control
In short: (§1)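 PfCRT-expressing and control oocytes: ND96 pH 5.5 → 1.5 h at 27.5 °C → ice-cold ND96 wash → 10% SDS lysis → scintillation count.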

PfCRT^Ecu1110 [3] = biological target: T1, PfCRT^Ecu1110 (Plasmodium falciparum, UniProt Q9N623, A220S/I356L/K76T/N326D); assay: cell-based; type: cell-based; conditions: for PfCRT-mediated [3H]CQ transport, trans-stimulation (% PfCRTEcu1110 control): normalised to oocyte type control; for [3H]CQ transport (% PfCRTDd2 control), trans-stimulation, PfCRTEcu1110: PfCRT-mediated component (background subtracted), sheet title says normalised to PfCRTDd2 control, mean ± SEM, SEM
In short: (§2)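 Transport measured in Xenopus oocytes expressing the transporters, 1.5 h at 27.5 °C in ND96 pH 5.5 unless noted. For trans-stimulation, VF-6 injected in 25 nL ND96 at pH 5.0–7.0 or Na^+-free (choline) buffer; intracellular levels based on ~400 nL oocyte volume. Ten oocytes per treatment, ≥4 experiments.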

PfNT1 = biological target: T2, PfNT1 (Plasmodium falciparum, UniProt Q8IDM6); assay: cell-based; type: cell-based; conditions: PfNT1 oocytes, total [3H]CQ transport, normalised to the oocyte type control
T2 construct: expressed in transfected cells; host or cells: Xenopus laevis oocytes (stage V-VI), cRNA-injected
In short: as §2

PfCRT^Dd2 [4] = biological target: T3, PfCRT^Dd2 (Plasmodium falciparum, UniProt Q9N623, A220S/I356T/K76T/M74I/N326S/N75E/Q271E/R371I); assay: cell-based; type: cell-based; conditions: for Uptake of [3H]CQ (% PfCRTDd2 control), trans-stimulation / PfCRT-mediated [3H]CQ transport, trans-stimulation (% PfCRTDd2 control): PfCRTDd2 oocytes; for Uptake of [3H]CQ (% PfCRTDd2 control), trans-stimulation: total [3H]CQ transport, normalised to the oocyte type control; for PfCRT-mediated [3H]CQ transport, trans-stimulation (% PfCRTDd2 control): normalised to oocyte type control; for [3H]CQ transport (% PfCRTDd2 control), trans-stimulation, PfCRTDd2: PfCRT-mediated component (background subtracted), mean ± SEM, SEM
In short: as §2

PfCRT^3D7 [5] = biological target: T4, PfCRT^3D7 (Plasmodium falciparum, UniProt Q8IBZ9); assay: cell-based; type: cell-based; conditions: for Uptake of [3H]CQ (% PfCRT3D7 control), trans-stimulation / PfCRT-mediated [3H]CQ transport, trans-stimulation (% PfCRT3D7 control): PfCRT3D7 oocytes; for Uptake of [3H]CQ (% PfCRT3D7 control), trans-stimulation: total [3H]CQ transport, normalised to the oocyte type control; for PfCRT-mediated [3H]CQ transport, trans-stimulation (% PfCRT3D7 control): normalised to oocyte type control
In short: as §2

PfCRT^Ecu1110 [6] = biological target: T1, PfCRT^Ecu1110; assay: [3H]CQ uptake into Xenopus oocytes, cis-inhibition by unlabelled solute; type: cell-based; conditions: for Uptake of [3H]CQ (% PfCRTEcu1110 control), cis-inhibition / PfCRT-mediated [3H]CQ transport, cis-inhibition (% PfCRTEcu1110 control): PfCRTEcu1110 oocytes; for Uptake of [3H]CQ (% PfCRTEcu1110 control), cis-inhibition: total [3H]CQ transport, normalised to the oocyte type control; for PfCRT-mediated [3H]CQ transport, cis-inhibition (% PfCRTEcu1110 control): background [3H]CQ accumulation subtracted, normalised to oocyte type control
In short: as §1

PfCRT^Dd2 [7] = biological target: T3, PfCRT^Dd2; assay: as above; type: cell-based; conditions: PfCRTDd2 oocytes, background [3H]CQ accumulation subtracted, normalised to oocyte type control
In short: as §1

PfCRT^3D7 [8] = biological target: T4, PfCRT^3D7; assay: cell-based; type: cell-based; conditions: PfCRT3D7 oocytes, total [3H]CQ transport, normalised to the oocyte type control
In short: as §1

[9] = [test solute]i = 45 mM (30 mM for some solutes due to solubility)
[10] = [test solute]i = 5 mM (injected)
[11] = [test solute]i = 5 mM (intracellular)
[12] = [test solute]i = 45 mM (intracellular; 30 mM for some solutes due to solubility)

T4 sequence (Q8IBZ9 59-398): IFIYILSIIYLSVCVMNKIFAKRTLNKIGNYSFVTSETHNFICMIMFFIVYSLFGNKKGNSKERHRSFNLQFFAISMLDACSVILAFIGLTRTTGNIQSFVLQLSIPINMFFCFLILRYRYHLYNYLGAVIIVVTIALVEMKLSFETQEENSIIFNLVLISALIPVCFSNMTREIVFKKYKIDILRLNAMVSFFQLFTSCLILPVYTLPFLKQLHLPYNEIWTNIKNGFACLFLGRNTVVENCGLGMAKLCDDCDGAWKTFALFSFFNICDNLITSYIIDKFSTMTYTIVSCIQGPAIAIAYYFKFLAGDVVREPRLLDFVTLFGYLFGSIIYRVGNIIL
T3 sequence (Q9N623 whole entry A220S/I356T/K76T/M74I/N326S/N75E/Q271E/R371I): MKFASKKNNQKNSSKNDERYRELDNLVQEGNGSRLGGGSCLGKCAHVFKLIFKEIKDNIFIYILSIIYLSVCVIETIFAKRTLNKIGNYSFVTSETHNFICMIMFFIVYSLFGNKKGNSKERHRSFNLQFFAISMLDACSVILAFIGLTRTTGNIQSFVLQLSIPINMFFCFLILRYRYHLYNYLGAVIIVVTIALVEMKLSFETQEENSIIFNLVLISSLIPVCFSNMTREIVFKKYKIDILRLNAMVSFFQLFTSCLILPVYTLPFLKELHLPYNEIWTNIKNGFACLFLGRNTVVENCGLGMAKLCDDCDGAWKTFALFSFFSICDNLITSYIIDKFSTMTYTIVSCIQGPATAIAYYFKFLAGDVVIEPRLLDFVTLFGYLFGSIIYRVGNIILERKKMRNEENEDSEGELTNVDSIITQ
T1 sequence (Q9N623 whole entry A220S/I356L/K76T/N326D): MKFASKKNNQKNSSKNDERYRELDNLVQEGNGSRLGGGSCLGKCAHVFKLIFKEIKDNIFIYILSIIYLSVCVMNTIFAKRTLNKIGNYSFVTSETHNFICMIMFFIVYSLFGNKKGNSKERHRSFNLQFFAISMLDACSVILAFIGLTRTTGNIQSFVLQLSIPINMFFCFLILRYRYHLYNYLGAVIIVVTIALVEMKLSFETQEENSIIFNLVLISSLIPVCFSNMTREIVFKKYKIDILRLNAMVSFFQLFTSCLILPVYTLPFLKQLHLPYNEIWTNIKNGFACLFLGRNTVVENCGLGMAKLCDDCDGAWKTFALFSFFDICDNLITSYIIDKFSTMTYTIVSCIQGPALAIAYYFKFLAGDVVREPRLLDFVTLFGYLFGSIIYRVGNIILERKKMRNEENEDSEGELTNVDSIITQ
T2 sequence (Q8IDM6 whole entry): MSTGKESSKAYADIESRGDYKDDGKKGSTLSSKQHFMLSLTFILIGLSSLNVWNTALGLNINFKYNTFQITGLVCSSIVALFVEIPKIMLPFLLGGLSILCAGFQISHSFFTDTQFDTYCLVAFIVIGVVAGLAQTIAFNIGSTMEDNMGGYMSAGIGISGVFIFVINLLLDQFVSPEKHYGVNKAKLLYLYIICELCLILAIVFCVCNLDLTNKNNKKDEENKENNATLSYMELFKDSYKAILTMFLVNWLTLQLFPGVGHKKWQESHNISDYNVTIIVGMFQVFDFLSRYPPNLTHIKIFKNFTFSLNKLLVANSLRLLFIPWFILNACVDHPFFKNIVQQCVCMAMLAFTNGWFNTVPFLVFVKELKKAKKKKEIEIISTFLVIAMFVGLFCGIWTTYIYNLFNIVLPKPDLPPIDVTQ

**Q.** For HVDD [HD-4], which “Uptake of [3H]CQ (% non-expressing oocyte control), trans-stimulation” value (non-expressing oocytes [1]; [test solute]i = 5 mM) is on record?
**A.** 100 ± 3.6 % non-expressing oocyte control

**Q.** And the “Uptake of [3H]CQ (% non-expressing oocyte control), trans-stimulation” value (non-expressing oocytes [1]; [9])?
**A.** 98 ± 3.3 % non-expressing oocyte control

**Q.** What about the “Uptake of [3H]CQ (% non-expressing oocyte control), cis-inhibition” value (non-expressing oocytes [2]; [test solute] = 0.5 mM) of the same substance?
**A.** 99 ± 5.3 % non-expressing oocyte control

**Q.** What about the “Uptake of [3H]CQ (% non-expressing oocyte control), cis-inhibition” value (non-expressing oocytes [2]; [test solute] = 1 mM) of the same substance?
**A.** 100 ± 5.2 % non-expressing oocyte control

**Q.** What about the “Uptake of [3H]CQ (% non-expressing oocyte control), cis-inhibition” value (non-expressing oocytes [2]; [test solute] = 2 mM) of the same substance?
**A.** 97 ± 5.5 % non-expressing oocyte control

**Q.** And the “Uptake of [3H]CQ (% PfCRTEcu1110 control), trans-stimulation” value (PfCRT^Ecu1110 [3]; PfCRTEcu1110 oocytes, [test solute]i = 45 mM (30 mM for some solutes due to solubility), total [3H]CQ transport, normalised to the oocyte type control)?
**A.** 99 ± 3.2 % PfCRTEcu1110 control

**Q.** What about the “PfCRT-mediated [3H]CQ transport, trans-stimulation (% PfCRTEcu1110 control)” value (PfCRT^Ecu1110 [3]; [test solute]i = 5 mM (intracellular), PfCRTEcu1110 oocytes) of the same substance?
**A.** 99 ± 4.9 % PfCRTEcu1110 control

**Q.** What about the “PfCRT-mediated [3H]CQ transport, trans-stimulation (% PfCRTEcu1110 control)” value (PfCRT^Ecu1110 [3]; [test solute]i = 45 mM (intracellular; 30 mM for some solutes due to solubility), PfCRTEcu1110 oocytes) of the same substance?
**A.** 97 ± 4.8 % PfCRTEcu1110 control

**Q.** And the “[3H]CQ transport (% PfCRTDd2 control), trans-stimulation, PfCRTEcu1110” value (PfCRT^Ecu1110 [3]; [10])?
**A.** 30 ± 1.6 % PfCRTEcu1110 control

**Q.** What about the “[3H]CQ transport (% PfCRTDd2 control), trans-stimulation, PfCRTEcu1110” value (PfCRT^Ecu1110 [3]; [9]) of the same substance?
**A.** 29 ± 1.5 % PfCRTEcu1110 control

**Q.** What about the “Uptake of [3H]CQ (% PfNT1 control), trans-stimulation” value (PfNT1; [test solute]i = 5 mM) of the same substance?
**A.** 100 ± 2.7 % PfNT1 control

**Q.** And the “Uptake of [3H]CQ (% PfNT1 control), trans-stimulation” value (PfNT1; [9])?
**A.** 99 ± 2.5 % PfNT1 control

**Q.** What about the “Uptake of [3H]CQ (% PfCRTDd2 control), trans-stimulation” value (PfCRT^Dd2 [4]; [test solute]i = 5 mM) of the same substance?
**A.** 99 ± 4.3 % PfCRTDd2 control

**Q.** And the “Uptake of [3H]CQ (% PfCRTDd2 control), trans-stimulation” value (PfCRT^Dd2 [4]; [9])?
**A.** 100 ± 2.4 % PfCRTDd2 control

**Q.** What about the “PfCRT-mediated [3H]CQ transport, trans-stimulation (% PfCRTDd2 control)” value (PfCRT^Dd2 [4]; [11]) of the same substance?
**A.** 97 ± 2.9 % PfCRTDd2 control

**Q.** And the “PfCRT-mediated [3H]CQ transport, trans-stimulation (% PfCRTDd2 control)” value (PfCRT^Dd2 [4]; [12])?
**A.** 98 ± 3.9 % PfCRTDd2 control

**Q.** And the “[3H]CQ transport (% PfCRTDd2 control), trans-stimulation, PfCRTDd2” value (PfCRT^Dd2 [4]; [10])?
**A.** 97 ± 2.9 % PfCRTDd2 control

**Q.** What about the “[3H]CQ transport (% PfCRTDd2 control), trans-stimulation, PfCRTDd2” value (PfCRT^Dd2 [4]; [9]) of the same substance?
**A.** 98 ± 3.9 % PfCRTDd2 control

**Q.** And the “Uptake of [3H]CQ (% PfCRT3D7 control), trans-stimulation” value (PfCRT^3D7 [5]; [test solute]i = 5 mM)?
**A.** 98 ± 4.1 % PfCRT3D7 control

**Q.** And the “Uptake of [3H]CQ (% PfCRT3D7 control), trans-stimulation” value (PfCRT^3D7 [5]; [9])?
**A.** 96 ± 1.7 % PfCRT3D7 control

**Q.** What about the “[3H]CQ transport (% PfCRT3D7 control), trans-stimulation, PfCRT3D7” value (PfCRT^3D7 [5]; SEM) of the same substance?
**A.** 0.1 ± 0.01

**Q.** And the “PfCRT-mediated [3H]CQ transport, trans-stimulation (% PfCRT3D7 control)” value (PfCRT^3D7 [5]; [11])?
**A.** 96 ± 3.3 % PfCRT3D7 control

**Q.** And the “PfCRT-mediated [3H]CQ transport, trans-stimulation (% PfCRT3D7 control)” value (PfCRT^3D7 [5]; [12])?
**A.** 94 ± 4.9 % PfCRT3D7 control

**Q.** What about the “Uptake of [3H]CQ (% PfCRTEcu1110 control), cis-inhibition” value (PfCRT^Ecu1110 [6]; [test solute] = 0.5 mM) of the same substance?
**A.** 53 ± 8.3 % PfCRTEcu1110 control

**Q.** And the “Uptake of [3H]CQ (% PfCRTEcu1110 control), cis-inhibition” value (PfCRT^Ecu1110 [6]; [test solute] = 1 mM)?
**A.** 44 ± 6.1 % PfCRTEcu1110 control

**Q.** And the “Uptake of [3H]CQ (% PfCRTEcu1110 control), cis-inhibition” value (PfCRT^Ecu1110 [6]; [test solute] = 2 mM)?
**A.** 32 ± 4.7 % PfCRTEcu1110 control

**Q.** What about the “PfCRT-mediated [3H]CQ transport, cis-inhibition (% PfCRTEcu1110 control)” value (PfCRT^Ecu1110 [6]; [test solute] = 0.5 mM) of the same substance?
**A.** 49 ± 1.4 % PfCRTEcu1110 control

**Q.** What about the “PfCRT-mediated [3H]CQ transport, cis-inhibition (% PfCRTEcu1110 control)” value (PfCRT^Ecu1110 [6]; [test solute] = 1 mM) of the same substance?
**A.** 39 ± 3.1 % PfCRTEcu1110 control

**Q.** What about the “PfCRT-mediated [3H]CQ transport, cis-inhibition (% PfCRTEcu1110 control)” value (PfCRT^Ecu1110 [6]; [test solute] = 2 mM) of the same substance?
**A.** 28 ± 1.3 % PfCRTEcu1110 control

**Q.** What about the “[3H]CQ transport (% PfCRTEcu1110 control), cis-inhibition, PfCRTEcu1110” value (PfCRT^Ecu1110 [6]; cis-inhibition, [test solute] = 2 mM, PfCRT-mediated component (background subtracted), sheet title says normalised to PfCRTDd2 control, mean ± SEM, SEM) of the same substance?
**A.** 9.0 ± 0.03 % PfCRTEcu1110 control

**Q.** And the “PfCRT-mediated [3H]CQ transport, cis-inhibition (% PfCRTDd2 control)” value (PfCRT^Dd2 [7]; [test solute] = 0.5 mM)?
**A.** 44 ± 2.3 % PfCRTDd2 control

**Q.** And the “PfCRT-mediated [3H]CQ transport, cis-inhibition (% PfCRTDd2 control)” value (PfCRT^Dd2 [7]; [test solute] = 1 mM)?
**A.** 31 ± 1.0 % PfCRTDd2 control

**Q.** What about the “PfCRT-mediated [3H]CQ transport, cis-inhibition (% PfCRTDd2 control)” value (PfCRT^Dd2 [7]; [test solute] = 2 mM) of the same substance?
**A.** 19 ± 0.8 % PfCRTDd2 control

**Q.** What about the “Uptake of [3H]CQ (% PfCRT3D7 control), cis-inhibition” value (PfCRT^3D7 [8]; [test solute] = 0.5 mM) of the same substance?
**A.** 100 ± 3.8 % PfCRT3D7 control

**Q.** And the “Uptake of [3H]CQ (% PfCRT3D7 control), cis-inhibition” value (PfCRT^3D7 [8]; [test solute] = 1 mM)?
**A.** 102 ± 3.7 % PfCRT3D7 control

**Q.** What about the “Uptake of [3H]CQ (% PfCRT3D7 control), cis-inhibition” value (PfCRT^3D7 [8]; [test solute] = 2 mM) of the same substance?
**A.** 99 ± 3.6 % PfCRT3D7 control
